Data reported in US9458198B1, “Cyclic peptide-based NPR-B agonists” (priority 2009, dated 2016).
Where two headings read alike, the source gives them in different places. Where a SMILES comes first, the peptide text is derived from it. Bridges are numbered along the chain shown (N, C = ends). [ ]: non-standard residue; d: D form. The star is where a group is joined. Hexanoyl = CCCCCC(=O)*

Molecular target: T1, NPR-B (Homo sapiens, UniProt P20594)
T1 construct: a functional assay using endogenously NPR-B expressing GTM-3 cells; endogenous in cells; host or cells: GTM-3 (transformed human trabecular meshwork cells)
T1 sequence (P20594 23-1047): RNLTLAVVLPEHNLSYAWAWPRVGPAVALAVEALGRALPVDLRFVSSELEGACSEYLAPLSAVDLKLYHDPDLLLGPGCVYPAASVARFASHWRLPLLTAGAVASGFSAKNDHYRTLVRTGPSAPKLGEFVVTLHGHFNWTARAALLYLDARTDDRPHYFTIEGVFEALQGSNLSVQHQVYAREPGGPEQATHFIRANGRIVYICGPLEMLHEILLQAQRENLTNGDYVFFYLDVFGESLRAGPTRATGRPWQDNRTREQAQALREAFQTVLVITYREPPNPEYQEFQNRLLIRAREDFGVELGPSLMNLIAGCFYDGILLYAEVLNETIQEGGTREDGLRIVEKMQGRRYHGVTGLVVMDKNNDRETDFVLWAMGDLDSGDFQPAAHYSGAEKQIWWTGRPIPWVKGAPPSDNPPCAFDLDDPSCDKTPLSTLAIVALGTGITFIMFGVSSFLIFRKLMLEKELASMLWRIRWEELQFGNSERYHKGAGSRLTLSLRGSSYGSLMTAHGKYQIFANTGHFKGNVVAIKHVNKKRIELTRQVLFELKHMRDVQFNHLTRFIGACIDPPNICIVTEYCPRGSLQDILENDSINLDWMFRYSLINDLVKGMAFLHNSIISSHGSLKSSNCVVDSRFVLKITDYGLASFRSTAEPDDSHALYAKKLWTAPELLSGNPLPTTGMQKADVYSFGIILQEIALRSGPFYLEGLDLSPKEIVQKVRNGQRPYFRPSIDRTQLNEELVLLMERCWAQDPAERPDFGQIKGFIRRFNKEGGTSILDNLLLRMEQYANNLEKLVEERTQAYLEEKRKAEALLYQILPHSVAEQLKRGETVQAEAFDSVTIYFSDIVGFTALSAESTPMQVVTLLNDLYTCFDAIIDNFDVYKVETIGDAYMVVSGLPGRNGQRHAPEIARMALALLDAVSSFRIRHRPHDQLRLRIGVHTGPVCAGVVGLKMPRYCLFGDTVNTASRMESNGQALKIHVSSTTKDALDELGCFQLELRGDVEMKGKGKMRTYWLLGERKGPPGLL
Assay: NPR-B induced production of cyclic GMP in GTM-3 cells
Format: cell-based
Method: The efficacy and potency of compounds to activate NPR-B were evaluated in a functional assay using endogenously NPR-B expressing GTM-3 cells (Pang et al. 1994, Curr Eye Res 13:51-63). In this assay the dose dependent production of cyclic GMP (cGMP) is determined and Emax (maximum activation) and EC50 values are calculated.
The cell culture medium is aspirated and each well is washed with 200 μl DMEM/Ham's F12=Medium (Gibco). Then, 200 μl Medium supplemented with 1 mM IBMX (3-Isobutyl-1-methyl-xanthin, Sigma) is added to each well and incubated for 15 min. at room temperature.
Final compound concentrations are in the range from 45 μM to 20 nM.

[1] = Activity (group): NPR-B activation, EC50 and Emax (CNP = 100%), GTM-3 cells, group needs both EC50 and Emax criteria, checked A then B then C
[2] = GTM-3 cells, group needs both EC50 and Emax criteria, checked A then B then C, read-out: Activity (group): NPR-B activation, EC50 and Emax (CNP = 100%)
[3] = Activity (group): NPR-B activation, EC50 and Emax (CNP = 100%)

EC50 [2] [nM] | Structure (SMILES) | EC50 [3] [nM] | also measured
 | CC[C@H](C)[C@@H]1NC(=O)[C@H](CCCNC(=N)N)NC(=O)[C@H](CC(=O)O)NC(=O)[C@H](CC(C)C)NC(=O)[C@@H]2CCCN2C(=O)[C@H](CC(C)C)NC(=O)CNC(=O)[C@H](Cc2ccccc2)NC(=O)[C@@H](C)NC(=O)[C@@H](NC(=O)[C@@H](N)CCSC)CSSC[C@@H](C(N)=O)NC(=O)[C@H](CO)NC1=O [compound 49] |  | EC50 [1]: < 1000 nM
< 1000 | CC[C@H](C)[C@@H]1NC(=O)[C@H](CCCNC(=N)N)NC(=O)[C@H](CC(=O)O)NC(=O)[C@H]([C@@H](C)CC)NC(=O)[C@H](CCCCN)NC(=O)[C@H](CC(C)C)NC(=O)CNC(=O)[C@H](Cc2ccccc2)NC(=O)[C@@H](C)NC(=O)[C@@H](NC(=O)[C@@H](N)CCSC)CSSC[C@@H](C(N)=O)NC(=O)[C@H](CO)NC1=O [compound 53] (H-MC[dA]FGLKIDRISC-NH2; disulfide 2-13) |  | 
< 5000 | CC[C@H](C)[C@@H]1NC(=O)[C@H](CCCNC(=N)N)NC(=O)[C@H](CC(=O)O)NC(=O)[C@H](C(C)C)NC(=O)[C@H](CCCCN)NC(=O)[C@H](CC(C)C)NC(=O)CNC(=O)[C@H](Cc2ccccc2)NC(=O)[C@@H](C)NC(=O)[C@@H](NC(=O)[C@@H](N)CCSC)CSSC[C@@H](C(N)=O)NC(=O)[C@H](CO)NC1=O [compound 54] (H-MC[dA]FGLKVDRISC-NH2; disulfide 2-13) |  | 
< 5000 | CSCC[C@H](N)C(=O)N[C@H]1CSSC[C@@H](C(N)=O)NC(=O)[C@H](CO)NC(=O)[C@H](CC(C)C)NC(=O)[C@H](CCCNC(=N)N)NC(=O)[C@H](CC(=O)O)NC(=O)[C@H](CC(C)C)NC(=O)[C@H](CCCCN)NC(=O)[C@H](CC(C)C)NC(=O)CNC(=O)[C@H](Cc2ccccc2)NC(=O)[C@@H](C)NC1=O [compound 56] (H-MC[dA]FGLKLDRLSC-NH2; disulfide 2-13) |  | 
< 5000 | CSCC[C@H](N)C(=O)N[C@H]1CSSC[C@@H](C(N)=O)NC(=O)[C@H](CO)NC(=O)[C@H](C(C)C)NC(=O)[C@H](CCCNC(=N)N)NC(=O)[C@H](CC(=O)O)NC(=O)[C@H](CC(C)C)NC(=O)[C@H](CCCCN)NC(=O)[C@H](CC(C)C)NC(=O)CNC(=O)[C@H](Cc2ccccc2)NC(=O)[C@@H](C)NC1=O [compound 57] (H-MC[dA]FGLKLDRVSC-NH2; disulfide 2-13) |  | 
 | CCC(=O)N[C@H]1CSSC[C@@H](C(N)=O)NC(=O)[C@H](CO)NC(=O)[C@H]([C@@H](C)CC)NC(=O)[C@H](CCCNC(=N)N)NC(=O)[C@H](CC(=O)O)NC(=O)[C@H](CC(C)C)NC(=O)[C@H](CCCCN)NC(=O)[C@H](CC(C)C)NC(=O)CNC(=O)[C@H](Cc2ccccc2)NC(=O)[C@@H](C)NC1=O [compound 62] | < 5000 | 
 | CC[C@H](C)[C@@H]1NC(=O)[C@H](CCCNC(=N)N)NC(=O)[C@H](CC(=O)O)NC(=O)[C@H](CC(C)C)NC(=O)[C@H](CCCCN)NC(=O)[C@H](CC(C)C)NC(=O)CNC(=O)[C@H](Cc2ccccc2)NC(=O)[C@@H](C)NC(=O)[C@@H](NC(=O)CC(C)C)CSSC[C@@H](C(N)=O)NC(=O)[C@H](CO)NC1=O [compound 63] | < 5000 | 
 | CC[C@H](C)[C@@H]1NC(=O)[C@H](CCCNC(=N)N)NC(=O)[C@H](CC(=O)O)NC(=O)[C@H](CC(C)C)NC(=O)[C@H](CCCCN)NC(=O)[C@H](CC(C)C)NC(=O)CNC(=O)[C@H](Cc2ccccc2)NC(=O)[C@@H](C)NC(=O)[C@@H](NC(=O)CCC(C)C)CSSC[C@@H](C(N)=O)NC(=O)[C@H](CO)NC1=O [compound 64] | < 1000 | 
 | CCCCCC(=O)N[C@H]1CSSC[C@@H](C(N)=O)NC(=O)[C@H](CO)NC(=O)[C@H]([C@@H](C)CC)NC(=O)[C@H](CCCNC(=N)N)NC(=O)[C@H](CC(=O)O)NC(=O)[C@H](CC(C)C)NC(=O)[C@H](CCCCN)NC(=O)[C@H](CC(C)C)NC(=O)CNC(=O)[C@H](Cc2ccccc2)NC(=O)[C@@H](C)NC1=O [compound 65] | < 1000 | 
 | CC[C@H](C)[C@@H]1NC(=O)[C@H](CCCNC(=N)N)NC(=O)[C@H](CC(=O)O)NC(=O)[C@H](CC(C)C)NC(=O)[C@H](CCCCN)NC(=O)[C@H](CC(C)C)NC(=O)CNC(=O)[C@H](Cc2ccccc2)NC(=O)[C@@H](C)NC(=O)[C@@H](NC(=O)c2ccccc2)CSSC[C@@H](C(N)=O)NC(=O)[C@H](CO)NC1=O [compound 66] |  | EC50 [1]: < 5000 nM
 | CC[C@H](C)[C@@H]1NC(=O)[C@H](CCCNC(=N)N)NC(=O)[C@H](CC(=O)O)NC(=O)[C@H](CC(C)C)NC(=O)[C@H](CCCCN)NC(=O)[C@H](CC(C)C)NC(=O)CNC(=O)[C@H](Cc2ccccc2)NC(=O)[C@@H](C)NC(=O)[C@@H](NC(=O)CCCC(C)C)CSSC[C@@H](C(N)=O)NC(=O)[C@H](CO)NC1=O [compound 67] | < 1000 | 
 | CCCCCCCC(=O)N[C@H]1CSSC[C@@H](C(N)=O)NC(=O)[C@H](CO)NC(=O)[C@H]([C@@H](C)CC)NC(=O)[C@H](CCCNC(=N)N)NC(=O)[C@H](CC(=O)O)NC(=O)[C@H](CC(C)C)NC(=O)[C@H](CCCCN)NC(=O)[C@H](CC(C)C)NC(=O)CNC(=O)[C@H](Cc2ccccc2)NC(=O)[C@@H](C)NC1=O [compound 68] | < 1000 | 
 | CC[C@H](C)[C@@H]1NC(=O)[C@H](CCCNC(=N)N)NC(=O)[C@H](CC(=O)O)NC(=O)[C@H](CC(C)C)NC(=O)[C@H](CCCCN)NC(=O)[C@H](CC(C)C)NC(=O)CNC(=O)[C@H](Cc2ccccc2)NC(=O)[C@@H](C)NC(=O)[C@@H](NC(=O)Cc2ccccc2)CSSC[C@@H](C(N)=O)NC(=O)[C@H](CO)NC1=O [compound 69] |  | EC50 [1]: < 5000 nM
 | CC[C@H](C)[C@@H]1NC(=O)[C@H](CCCNC(=N)N)NC(=O)[C@H](CC(=O)O)NC(=O)[C@H](CC(C)C)NC(=O)[C@H](CCCCN)NC(=O)[C@H](CC(C)C)NC(=O)CNC(=O)[C@H](Cc2ccccc2)NC(=O)[C@@H](C)NC(=O)[C@@H](NC(=O)CCc2ccccc2)CSSC[C@@H](C(N)=O)NC(=O)[C@H](CO)NC1=O [compound 70] | < 1000 | 
< 5000 | CCCCS(=O)(=O)N[C@H]1CSSC[C@@H](C(N)=O)NC(=O)[C@H](CO)NC(=O)[C@H]([C@@H](C)CC)NC(=O)[C@H](CCCNC(=N)N)NC(=O)[C@H](CC(=O)O)NC(=O)[C@H](CC(C)C)NC(=O)[C@H](CCCCN)NC(=O)[C@H](CC(C)C)NC(=O)CNC(=O)[C@H](Cc2ccccc2)NC(=O)[C@@H](C)NC1=O [compound 71] |  | 
 | CC[C@H](C)[C@@H]1NC(=O)[C@H](CCCNC(=N)N)NC(=O)[C@H](CC(=O)O)NC(=O)[C@H](CC(C)C)NC(=O)[C@H](CCCCN)NC(=O)[C@H](CC(C)C)NC(=O)CNC(=O)[C@H](Cc2ccccc2)NC(=O)[C@@H](C)NC(=O)[C@@H](NC(=O)CCCc2ccccc2)CSSC[C@@H](C(N)=O)NC(=O)[C@H](CO)NC1=O [compound 72] | < 1000 | 
 | CC[C@H](C)[C@@H]1NC(=O)[C@H](CCCNC(=N)N)NC(=O)[C@H](CC(=O)O)NC(=O)[C@H](CC(C)C)NC(=O)[C@H](CCCCN)NC(=O)[C@H](CC(C)C)NC(=O)CNC(=O)[C@H](Cc2ccccc2)NC(=O)[C@@H](C)NC(=O)[C@@H](N)CSSC[C@@H](C(N)=O)NC(=O)[C@H](CO)NC1=O [compound 73] |  | EC50 [1]: < 15000 nM
< 1000 | CCCCCC(=O)N[C@H]1CSSC[C@@H](C(N)=O)NC(=O)[C@H](CO)NC(=O)[C@H]([C@@H](C)CC)NC(=O)[C@H](CCCNC(=N)N)NC(=O)[C@H](CC(=O)O)NC(=O)[C@H]([C@@H](C)CC)NC(=O)[C@H](CCCCN)NC(=O)[C@H](CC(C)C)NC(=O)CNC(=O)[C@H](Cc2ccccc2)NC(=O)[C@@H](C)NC1=O [compound 87] (Hexanoyl-C[dA]FGLKIDRISC-NH2; disulfide 1-12) |  | 
 | CCCCCC(=O)N[C@H]1CSSC[C@@H](C(N)=O)NC(=O)[C@H](CO)NC(=O)[C@H]([C@@H](C)CC)NC(=O)[C@H](CCCNC(=N)N)NC(=O)[C@H](CC(=O)O)NC(=O)[C@H]([C@@H](C)CC)NC(=O)[C@@H]2CCCN2C(=O)[C@H](CC(C)C)NC(=O)CNC(=O)[C@H](Cc2ccccc2)NC(=O)[C@@H](C)NC1=O [compound 88] (Hexanoyl-C[dA]FGLPIDRISC-NH2; disulfide 1-12) |  | EC50 [1]: < 1000 nM
